Data on 1 sequence can be found in US20170000866A1, “METHOD FOR EMULSIFYING A TRIEPITOPE PEPTIDE WITH MONTANIDE AND KITS FOR PERFORMING THE SAME” (VAXON BIOTECH, priority 2013, published 2017).

Ends that are not written are not given here.

This data set can be described thus: Vx006 solubilisation in solvents for injection. It counts as physicochemical. The conditions noted are these: in water for injection. Here is the method: For vaccinating a patient, 1 ml of solvent is added on the lyocake to resuspend the peptide, 0.7 ml of peptide in solution is then loaded in a silicone free syringe and 0.7 ml of MONTANIDE ISA51VG in a second syringe. Both syringes are then connected to the I-connector for the emulsification protocol.
According to SEPPIC recommendations, to the fact that the emulsion is performed for human administration (preventing the use of solvents as DMSO etc.), results presented in Example 1 above and solubility prediction, Vx006 was initially diluted in saline buffer. Two saline solvents were tested, NaCl 0.9% and PBS. […] Moreover, the addition of several solvents developed by Seppic and compatible with injection in humans and emulsion with MONTANIDE were tested during the Vx006 manufacturing development.
The vial can be gently agitated to accelerate the dissolution, if necessary. The dissolution can also be performed at cold temperature (0-10° C.).

For the sequence YLQVNSLQTVYLEYRQVPVYLEEITGYL [Vx006], the Solubility entry was “perfectly soluble” and the “pH of the solubilised peptide” value was “around 7”.
